# Measured values from patent US4138492A, “Aromatic amides of heterocyclic compounds and therapeutic compositions containing same” (priority 1974, dated 1979).
# Assays:
# [1] = test system: apomorphine-induced gnawing; experiment: Antiapomorphine activity (apomorphine-induced gnawing) in the rat; assay type: in vivo; conditions: Rattus norvegicus, po; rats; per os; Table III; read-out: Antiapomorphine Activity, Rats, ED50 (95% confidence limits)
# From the text: A number of the compounds of the present invention were screened in parallel with metoclopramide for potential anti-emetic effects against apomorphine-induced gnawing in the rat and as local anaesthetics on the rat sciatic nerve (Table I).
# *Antiapomorphine activity in rat scored as […]
# [2] = test system: electrically induced convulsions; experiment: Electrically induced convulsions in mice; assay type: in vivo; conditions: mice
# [3] = test system: convulsions induced by strychnine; experiment: Strychnine-induced convulsions in the mouse; assay type: in vivo
# writhing syndrome = experiment: Writhing syndrome induced by intra-peritoneal acetic acid in mice; assay type: in vivo; conditions: 300 mg/kg per os
# From the text: The HCl-Clebopride salt does have antipyretic and analgesic activity.
# [4] = Metabolism and pharmacokinetics in the rat; assay type: in vivo; conditions: intravenous
# [5] = Metabolism and pharmacokinetics in the rabbit; assay type: in vivo; conditions: intravenous
# [6] = test system: gastric emptying time in humans; experiment: Gastric emptying in humans, evaluated by radiologist; assay type: in vivo
# From the text: The evaluation was based on the subjective opinion of the radiologist in terms of the time required for the appearance of peristaltic waves and their capacity to evacuate. the stomach, according to the following scheme:
# in vivo = conditions: rat, po
# oxotremorine = experiment: Oxotremorine test in mice; conditions: mice previously treated with sub-threshold dose of oxotremorine
# [7] = 2 mg, compared with 20 mg of metoclopramide
compound,measurement,setting,value
"COc1cc(N)c(Cl)cc1C(=O)NC1CCN(Cc2ccccc2)CC1 [Clebopride, N-[4'-(1'-benzyl)-piperidyl]-2-methoxy-4-amino-5-chloro-benzamide]",ED50,[1],1.85 mg/kg
same,potency in preventing electrically induced convulsions,[2],somewhat more potent than metoclopramide
same,inhibition of convulsions induced by strychnine,[3],neither Clebopride nor metoclopramide appear to inhibit convulsions induced by strychnine
same,inhibition of writhing syndrome,writhing syndrome,almost completely inhibited the writhing syndrome
same,pharmacokinetics after intravenous administration,[4],follows a similar pattern in both species
same,pharmacokinetics after intravenous administration,[5],follows a similar pattern in both species
same,No. of Patients with + (no effect),"[6]; 0.2 mg by mouth, 6 patients",0
same,No. of Patients with ++ (moderate effect),"[6]; 0.2 mg by mouth, 6 patients",0
same,No. of Patients with +++ (good effect),"[6]; 0.2 mg by mouth, 6 patients",6
same,No. of Patients with ++++ (maximum effect),"[6]; 0.2 mg by mouth, 6 patients",0
same,contraction of the stomach,"[6]; 0.2 mg, compared with 20 mgs of metoclopramide",as rapid and forceful contraction of the stomach as 20 mgs of metoclopramide
same,No. of Patients with + (no effect),"[6]; 1 mg by mouth, 6 patients",1
same,No. of Patients with ++ (moderate effect),"[6]; 1 mg by mouth, 6 patients",2
same,No. of Patients with +++ (good effect),"[6]; 1 mg by mouth, 6 patients",3
same,No. of Patients with ++++ (maximum effect),"[6]; 1 mg by mouth, 6 patients",0
same,No. of Patients with + (no effect),"[6]; 2 mg by mouth, 8 patients",0
same,No. of Patients with ++ (moderate effect),"[6]; 2 mg by mouth, 8 patients",2
same,No. of Patients with +++ (good effect),"[6]; 2 mg by mouth, 8 patients",3
same,No. of Patients with ++++ (maximum effect),"[6]; 2 mg by mouth, 8 patients",3
same,contraction of the stomach,[6]; [7],more forceful contraction than 20 mg of metoclopramide
same,onset of action,[6]; [7],more rapid onset of action
same,No. of Patients with + (no effect),"[6]; 5 mg by mouth, 9 patients",0
same,No. of Patients with ++ (moderate effect),"[6]; 5 mg by mouth, 9 patients",2
same,No. of Patients with +++ (good effect),"[6]; 5 mg by mouth, 9 patients",0
same,No. of Patients with ++++ (maximum effect),"[6]; 5 mg by mouth, 9 patients",7
same,catatonia,"catatonia in rats; rat, in words",noted in the rat
same,antiemetic doses compared with those causing catatonia,"catatonia in rats; rats, Table III",exhibits antiemetic activity (anti-apomorphine activity) at doses which are far removed from those causing catatonia
same,TD50,in vivo,47.6 mg/kg
same,salivation and tremors,oxotremorine,capable of causing salivation and tremors
